Like-named read-outs stand apart in the source and are kept apart here.
Assays:
[1] = test system: Anthemis arvensis (field chamomile, ANTAR); test: Greenhouse postemergence trial ANTAR; type: in vivo; conditions: Anthemis arvensis, post-emergence, read-out: % visual injury Obs
[2] = test system: Brassica napus (spring rape, BRSNN); test: Greenhouse postemergence trial BRSNN; type: in vivo; conditions: for % visual injury (Obs): BRSNN
Experimental: (§1) The plants were grown for 7-36 days (d) in a greenhouse with an approximate 14-hour (h) photo-period which was maintained at about 23° C. during the day and 22° C. during the night. Nutrients and water were added on a regular basis and supplemental lighting was provided with overhead metal halide 1000-Watt lamps as necessary. The plants were employed for testing when they reached the second or third true leaf stage.
(§2) The emulsifiable concentrates also included a safener, cloquintocet-mexyl, at 120 grams active ingredient per liter (g ai/L), unless otherwise noted below.
(§3) Control plants were sprayed in the same manner with the solvent blank. All pyridine carboxylate herbicide (component a) application rates are given as “g ae/ha” and all synthetic auxin herbicide or auxin transport inhibitor (component b) application rates are given as “g ai/ha.”
(§4) The treated plants and control plants were placed in a greenhouse as described above and watered by sub-irrigation to prevent wash-off of the test compounds. After 20-22 d, the condition of the test plants as compared with that of the control plants was determined visually and scored on a scale of 0 to 100 percent where 0 corresponds to no injury and 100 corresponds to complete kill.

[3] = test system: Matricaria discoidea (pineapple weed, MATMT); test: Greenhouse postemergence trial MATMT; type: in vivo; conditions: Matricaria discoidea, post-emergence, read-out: % visual injury Obs
[4] = test system: Hordeum vulgare (spring barley, HORVS); type: in vivo; conditions: for % visual injury (Obs) / % visual injury Obs: HORVS
[5] = test system: Viola arvensis (field violet, VIOAR); test: Greenhouse postemergence trial VIOAR; type: in vivo; conditions: Viola arvensis, post-emergence, read-out: % visual injury Obs
[6] = test system: Cyanus segetum (cornflower, CENCY); test: Greenhouse postemergence trial CENCY; type: in vivo; conditions: Centaurea cyanus, post-emergence, read-out: % visual injury Obs
Experimental: (§5) Seeds of the desired test plant species were planted in a 90:10% v/v (volume/volume) mixture of PRO-MIX® BX (Premier Tech Horticulture, Quakertown, PA, USA) and PROFILE® GREENS GRADE™ (Profile Products LLC, Buffalo Grove, IL, USA) planting mixture, which typically has a pH of 5.2 to 6.2 and an organic matter content of at least 50 percent, in plastic pots with a surface area of 103.2 square centimeters (cm^2). […] The plants were grown for 7-36 days (d) in a greenhouse with an approximate 14-hour (h) photo-period which was maintained at about 23° C. during the day and 22° C. during the night. Nutrients and water were added on a regular basis and supplemental lighting was provided with overhead metal halide 1000-Watt lamps as necessary. The plants were employed for testing when they reached the second or third true leaf stage.
(§6) Emulsifiable concentrates of each of each pyridine carboxylate herbicide (Compound A or Compound B) were prepared at 100 grams acid equivalent per liter (g ae/L). The emulsifiable concentrates also included a safener, cloquintocet-mexyl, at 120 grams active ingredient per liter (g ai/L), unless otherwise noted below. An aliquot of each emulsifiable concentrate was placed in a 25 mL glass vial and diluted with an aqueous mixture of 1.25% (v/v) ACTIROB® B esterified rapeseed oil (Bayer Crop Science, Research Triangle Park, NC, USA) or MSO® Concentrate with LECI-TECH® methylated soybean oil (Loveland Products, Loveland, CO, USA) to obtain concentrated stock solutions at the highest application rate for each herbicide, based upon a 12 milliliter (mL) application volume at a rate of 187 liters per hectare (L/ha). The concentrated stock solutions were further diluted with an aqueous mixture of 1.25% v/v ACTIROB® B or MSO® Concentrate with LECI-TECH® to obtain stock solutions at reduced application rates for each herbicide. Spray solutions of the herbicide combinations (Compound A or Compound B plus synthetic auxin herbicide or auxin transport inhibitor) were prepared by adding weighed amounts or aliquots of the synthetic auxin herbicide or auxin transport inhibitor to the stock solutions of Compound A or Compound B to form 12-mL spray solutions in two-way combinations.
(§7) The spray solutions were applied to the plant material with an overhead Mandel track sprayer equipped with 8002E nozzles calibrated to deliver 187 L/ha over an application area of 0.503 square meters (m^2) at a spray height of 18 inches (43 centimeters (cm)) above the average plant canopy. Control plants were sprayed in the same manner with the solvent blank. All pyridine carboxylate herbicide (component a) application rates are given as “g ae/ha” and all synthetic auxin herbicide or auxin transport inhibitor (component b) application rates are given as “g ai/ha.”
as §4

[7] = test system: Chenopodium album L. (common lambsquarters, CHEAL); test: Greenhouse postemergence trial CHEAL; type: in vivo;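 also: greenhouse plants sprayed at second to third true leaf stage, injury rated by eye after 20-22 d versus solvent-blank sprayed controls, 0 = no injury, 100 = complete kill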
[8] = test system: Matricaria inodora (false chamomile, MATIN); test: Greenhouse postemergence trial MATIN; type: in vivo
[9] = test system: Veronica persica (bird's-eye speedwell, VERPE); test: Greenhouse postemergence trial VERPE; type: in vivo; conditions: Veronica persica, post-emergence, read-out: % visual injury Obs
[10] = test system: Triticum aestivum (spring wheat, TRZAS); type: in vivo; conditions: for % visual injury (Obs) / % visual injury Obs: TRZAS
Experimental: as §5, §6, §7, §4

[11] = test system: Triticum aestivum (winter wheat, TRZAW); test: Greenhouse postemergence crop phytotoxicity TRZAW; type: in vivo; conditions: TRZAW
Experimental: as §5, §6, §7, §4

[12] = test system: Polygonum convolvulus (wild buckwheat, POLCO); test: Greenhouse postemergence trial POLCO; type: in vivo
Experimental: as §5, §6, §7, §4

[13] = test system: Papaver rhoeas (corn poppy, PAPRH); test: Greenhouse postemergence trial PAPRH; type: in vivo; conditions: Papaver rhoeas, post-emergence, read-out: % visual injury Obs
[14] = test system: Capsella bursa-pastoris (shepherd's purse, CAPBP); test: Greenhouse postemergence trial CAPBP; type: in vivo
Experimental: as §5, §6, §7, §4

[15] = test system: Matricaria chamomilla (wild chamomile, MATCH); test: Greenhouse postemergence trial MATCH; type: in vivo;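 also: greenhouse plants sprayed at second to third true leaf stage, injury rated by eye 20-22 d later versus solvent-blank controls on 0–100 scale, 0 no injury, 100 complete kill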
[16] = test system: Cirsium arvense (Canadian thistle, CIRAR); test: Greenhouse postemergence trial CIRAR; type: in vivo
[17] = test system: Sinapis arvensis (wild mustard, SINAR); test: Greenhouse postemergence trial SINAR; type: in vivo
[18] = test system: Viola tricolor (wild pansy, VIOTR); test: Greenhouse postemergence trial VIOTR;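 also: greenhouse plants sprayed at second to third true leaf stage, injury rated visually after 20-22 d against solvent-blank sprayed controls, 0 meaning no injury and 100 complete kill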
[19] = test system: Kochia scoparia (kochia, KCHSC); test: Greenhouse postemergence trial KCHSC; type: in vivo
[20] = test system: Salsola kali (Russian thistle, SASKR); test: Greenhouse postemergence trial SASKR; type: in vivo;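 also: greenhouse plants sprayed at second or third true leaf stage, injury rated by eye after 20-22 d against solvent-blank controls, 0 meaning no injury, 100 complete kill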
[21] = test system: Hordeum vulgare (winter barley, HORVW); test: Greenhouse postemergence crop phytotoxicity HORVW; type: in vivo; conditions: HORVW
Experimental: as §5, §6, §7, §4

[22] = test system: Brassica napus (winter rape, BRSNW); test: Greenhouse postemergence trial BRSNW; type: in vivo; conditions: Brassica napus, post-emergence, read-out: % visual injury Obs
[23] = test system: Amaranthus retroflexus (pigweed, AMARE); test: Greenhouse postemergence trial AMARE; type: in vivo;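 also: Greenhouse-grown plants sprayed at second to third true leaf stage, injury rated by eye after 20-22 d versus solvent-blank sprayed controls, 0 = no injury, 100 = complete kill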
[24] = test system: Stellaria media (chickweed, STEME); test: Greenhouse postemergence trial STEME; type: in vivo; conditions: Stellaria media, post-emergence, read-out: % visual injury Obs
Experimental: as §5, §6, §7, §4

[25] = test system: Veronica hederifolia (ivyleaf speedwell, VERHE); test: Greenhouse postemergence trial VERHE; type: in vivo; conditions: Veronica hederifolia, post-emergence, read-out: % visual injury Obs
[26] = test system: Lamium purpureum (purple deadnettle, LAMPU); test: Greenhouse postemergence trial LAMPU
Experimental: as §1, §2, §3, §4

[27] = test system: Papaver rhoeas (corn poppy), herbicide-resistant (PAPRH-R); test: Greenhouse postemergence trial PAPRH-R; type: in vivo; conditions: Papaver rhoeas, post-emergence, read-out: % visual injury Obs
Experimental: as §5, §6, §7, §4

[28] = Viola tricolor, post-emergence, read-out: % visual injury Obs
[29] = Lamium purpureum, post-emergence, read-out: % visual injury Obs

## O=C(O)CCCOc1ccc(Cl)cc1Cl [2,4-DB]
[1]
  pest or weed control at 560 g/ha: 10%
[2]; alone 280 g/ha
  % visual injury (Obs): 70%
[3]
  pest or weed control at 560 g/ha: 5%
[4]; alone 280 g/ha
  % visual injury (Obs): 0%
[4]; alone, 560 g/ha
  % visual injury Obs: 0%
[5]
  pest or weed control at 560 g/ha: 30%
[6]
  pest or weed control at 560 g/ha: 30%
[7]; CHEAL, alone 280 g/ha
  % visual injury (Obs): 43%
[8]; Tripleurospermum inodorum, post-emergence, read-out: % visual injury Obs
  pest or weed control at 560 g/ha: 10%
[9]
  pest or weed control at 560 g/ha: 60%
[10]; alone 280 g/ha
  % visual injury (Obs): 0%
[10]; alone, 560 g/ha
  % visual injury Obs: 0%
[11]; alone, 560 g/ha
  % visual injury Obs: 0%
[12]; Fallopia convolvulus, post-emergence, read-out: % visual injury Obs
  pest or weed control at 560 g/ha: 30%
[12]; POLCO, alone 280 g/ha
  % visual injury (Obs): 13%
[13]
  pest or weed control at 560 g/ha: 100%
[14]; Capsella bursa-pastoris, post-emergence, read-out: % visual injury Obs
  pest or weed control at 560 g/ha: 30%
[15]; MATCH, alone 280 g/ha
  % visual injury (Obs): 5%
[15]; Matricaria chamomilla, post-emergence, MATCH, alone, read-out: % visual injury Obs
  pest or weed control: 10%
[16]; CIRAR, alone 280 g/ha
  % visual injury (Obs): 15%
[16]; Cirsium arvense, post-emergence, CIRAR, alone, read-out: % visual injury Obs
  pest or weed control: 30%
[17]; Mutarda arvensis, post-emergence, SINAR, alone, read-out: % visual injury Obs
  pest or weed control: 50%
[17]; SINAR, alone 280 g/ha
  % visual injury (Obs): 30%
[18]; [28]
  pest or weed control at 560 g/ha: 60%
[19]; Bassia scoparia, post-emergence, KCHSC, alone, read-out: % visual injury Obs
  pest or weed control: 30%
[19]; KCHSC, alone 280 g/ha
  % visual injury (Obs): 3%
[20]; Salsola kali, post-emergence, SASKR, alone, read-out: % visual injury Obs
  pest or weed control: 50%
[21]; alone, 560 g/ha
  % visual injury Obs: 0%
[22]
  plant injury at 560 g/ha: 85%
[23]; AMARE, alone 280 g/ha
  % visual injury (Obs): 60%
[24]
  pest or weed control at 560 g/ha: 10%
[25]
  pest or weed control at 560 g/ha: 60%
[26]; [29]
  pest or weed control at 560 g/ha: 10%
[27]
  pest or weed control at 560 g/ha: 30%

## COC(=O)C1(O)c2ccccc2-c2ccc(Cl)cc21 (stereo not shown) [Chlorflurenol-methyl]
[2]; chlorflurenol-methyl 140 g/ha
  BRSNN Obs (% visual injury): 23%
[4]; chlorflurenol-methyl 140 g/ha
  HORVS Obs (% visual injury): 0%
[7]; chlorflurenol-methyl 140 g/ha
  CHEAL Obs (% visual injury): 0%
[10]; chlorflurenol-methyl 140 g/ha
  TRZAS Obs (% visual injury): 0%
[15]; chlorflurenol-methyl 140 g/ha
  MATCH Obs (% visual injury): 0%
[16]; chlorflurenol-methyl 140 g/ha
  CIRAR Obs (% visual injury): 0%
[17]; chlorflurenol-methyl 140 g/ha
  SINAR Obs (% visual injury): 18%
[19]; chlorflurenol-methyl 140 g/ha
  KCHSC Obs (% visual injury): 0%
[20]; chlorflurenol-methyl 140 g/ha
  SASKR Obs (% visual injury): 0%
[23]; chlorflurenol-methyl 140 g/ha
  AMARE Obs (% visual injury): 0%

## Nc1c(Cl)c(Cl)nc(C(=O)O)c1Cl [Picloram]
[1]; ANTAR, Picloram 20 g/ha
  pest or weed control at 20 g/ha: 30%
[2]; alone 10 g/ha
  % visual injury (Obs): 8%
[3]; MATMT, Picloram 20 g/ha
  pest or weed control at 20 g/ha: 10%
[4]; Picloram 20 g/ha
  % visual injury Obs: 0%
[4]; alone 10 g/ha
  % visual injury (Obs): 0%
[5]; VIOAR, Picloram 20 g/ha
  pest or weed control at 20 g/ha: 10%
[6]; CENCY, Picloram 20 g/ha
  pest or weed control at 20 g/ha: 60%
[8]; MATIN, alone 10 g/ha
  % visual injury (Obs): 10%
[8]; Tripleurospermum inodorum, post-emergence, MATIN, Picloram 20 g/ha, read-out: % visual injury Obs
  pest or weed control at 20 g/ha: 30%
[9]; VERPE, Picloram 20 g/ha
  pest or weed control at 20 g/ha: 10%
[10]; Picloram 20 g/ha
  % visual injury Obs: 0%
[10]; alone 10 g/ha
  % visual injury (Obs): 0%
[11]; Picloram 20 g/ha
  % visual injury Obs: 0%
[12]; Fallopia convolvulus, post-emergence, POLCO, Picloram 20 g/ha, read-out: % visual injury Obs
  pest or weed control at 20 g/ha: 40%
[13]; PAPRH, Picloram 20 g/ha
  pest or weed control at 20 g/ha: 20%
[14]; CAPBP, alone 10 g/ha
  % visual injury (Obs): 10%
[14]; Capsella bursa-pastoris, post-emergence, CAPBP, Picloram 20 g/ha, read-out: % visual injury Obs
  pest or weed control at 20 g/ha: 0%
[15]; Matricaria chamomilla, post-emergence, MATCH, Picloram 20 g/ha, read-out: % visual injury Obs
  pest or weed control at 20 g/ha: 40%
[16]; Cirsium arvense, post-emergence, CIRAR, Picloram 20 g/ha, read-out: % visual injury Obs
  pest or weed control at 20 g/ha: 60%
[17]; Mutarda arvensis, post-emergence, SINAR, Picloram 20 g/ha, read-out: % visual injury Obs
  pest or weed control at 20 g/ha: 30%
[18]; VIOTR, alone, 10 g/ha
  % visual injury (Obs): 10%
[18]; [28]
  pest or weed control at 20 g/ha: 10%
[19]; Bassia scoparia, post-emergence, KCHSC, Picloram 20 g/ha, read-out: % visual injury Obs
  pest or weed control at 20 g/ha: 10%
[19]; KCHSC, alone 10 g/ha
  % visual injury (Obs): 10%
[20]; Salsola kali, post-emergence, SASKR, Picloram 20 g/ha, read-out: % visual injury Obs
  pest or weed control at 20 g/ha: 30%
[21]; Picloram 20 g/ha
  % visual injury Obs: 0%
[22]; BRSNW, Picloram 20 g/ha
  plant injury at 20 g/ha: 10%
[24]; STEME, Picloram 20 g/ha
  pest or weed control at 20 g/ha: 10%
[25]; VERHE, Picloram 20 g/ha
  pest or weed control at 20 g/ha: 10%
[26]; LAMPU, alone 10 g/ha
  % visual injury (Obs): 10%
[26]; [29]
  pest or weed control at 20 g/ha: 5%
[27]; PAPRH-R, Picloram 20 g/ha
  pest or weed control at 20 g/ha: 30%

— US12568967B2, “Compositions comprising pyridine carboxylate herbicides with synthetic auxin herbicides or auxin transport inhibitors” (priority 2018, dated 2026)
